Data: US20070117770A1, “Human ribosomal DNA (rDNA) and ribosomal RNA (rRNA) nucleic acids and uses thereof” (Cylene Pharmaceuticals, Inc., priority 2005, published 2007)

Biological target: T1, nucleolin (Homo sapiens, UniProt P19338)
T1 construct: without the N-terminal acidic stretches domain
Experiment: Filter-binding assay of 32P-labeled quadruplexes and Nucleolin
Conditions: not given
Experimental: The assay also was conducted in a filter-binding format. […] The protein-quadruplex mixtures were incubated for 30 min at ambient temperature and filtered through mixed cellulose ester membrane filters (Millipore) with gentle suction. The filters were washed twice with […] of binding buffer, dried and OptiPhase ‘SuperMix’ scintillation cocktail (Perkin Elmer) was added to the wells. Radioactivity was assayed with MicroBeta scintillation counter (Perkin Elmer). Binding curves were constructed and apparent Kd's and Bmax's for the complexes were calculated using the GraphPad Prizm software program (GraphPad Software). In the following table, the nucleic acid ligand is designated in the first column using the nomenclature described herein; the second column provides the nucleotide sequence of the nucleic acid ligand; the third column is the conformation of the ligand as determined by circular dichroism (M is mixed, P is parallel, A is antiparallel, C is complex, SS is single-stranded and ND is not determined); the fourth column is the dissociation constant determined by the filter binding assay of nucleolin protein and the nucleic acid ligand; the fifth column is a Bmax constant determined by the filter binding assay, which is the percent of active nucleic acid ligand in each assay; and the sixth column presents the concentration of Compound A-1 required to dissociate half of the complexed nucleic acid ligand and nucleolin protein, as determined by the EMSA assay described above.

T1 sequence (P19338 284-710 limits assumed): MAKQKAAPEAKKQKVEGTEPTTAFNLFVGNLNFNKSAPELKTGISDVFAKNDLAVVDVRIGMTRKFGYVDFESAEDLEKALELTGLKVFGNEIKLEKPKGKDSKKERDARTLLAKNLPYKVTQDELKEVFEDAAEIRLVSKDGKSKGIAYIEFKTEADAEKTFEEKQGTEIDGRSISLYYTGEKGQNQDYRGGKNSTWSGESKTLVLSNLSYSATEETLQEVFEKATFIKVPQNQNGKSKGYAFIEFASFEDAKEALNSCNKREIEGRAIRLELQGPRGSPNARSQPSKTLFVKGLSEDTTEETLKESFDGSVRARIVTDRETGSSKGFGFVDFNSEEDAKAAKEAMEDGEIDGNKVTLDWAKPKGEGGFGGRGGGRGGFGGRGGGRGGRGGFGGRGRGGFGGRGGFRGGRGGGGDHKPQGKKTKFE

Row | Molecule | Bmax, percent of active nucleic acid ligand [%]
1 | GGGAGGGCGCGCGGGTCGGGG (listed as DNA, chemistry not given here; listed as Homo sapiens) [Compound 8749NT] | 13
2 | GGGAGGGGCACGGGCCGGGGGCGGGACGGG (listed as DNA, chemistry not given here; listed as Homo sapiens) [Compound 7733T] | 53
3 | GGGGCGCGGCGGGGGGAGAAGGGTCGGGGCGGCAGGGG (listed as DNA, chemistry not given here; listed as Homo sapiens) [Compound 11028NT] | 32
4 | GGGGGCGGGCTCCGGCGGGTGCGGGGGTGGGCGGGCGGGGCCGGGGGTGGGGTCGGCGGGGG [Compound 8511NT] | 100
5 | GGGTCGGGGGCGGTGGTGGGCCCGCGGGGG (listed as DNA, chemistry not given here; listed as Homo sapiens) [Compound 6183NT] | 26

Same assay, conditions: 0.2 nM 32P-labeled quadruplex, read-out: Kd, apparent dissociation constant of nucleolin protein and the nucleic acid ligand

Row | Molecule | Kd [µM]
6 | GGGAGGGCGCGCGGGTCGGGG (listed as DNA, chemistry not given here; listed as Homo sapiens) [Compound 8749NT] | 0.0019
7 | GGGAGGGGCACGGGCCGGGGGCGGGACGGG (listed as DNA, chemistry not given here; listed as Homo sapiens) [Compound 7733T] | 0.0008
8 | GGGGCGCGGCGGGGGGAGAAGGGTCGGGGCGGCAGGGG (listed as DNA, chemistry not given here; listed as Homo sapiens) [Compound 11028NT] | 0.0027
9 | GGGGGCGGGCTCCGGCGGGTGCGGGGGTGGGCGGGCGGGGCCGGGGGTGGGGTCGGCGGGGG [Compound 8511NT] | 0.0006
10 | GGGTCGGGGGCGGTGGTGGGCCCGCGGGGG (listed as DNA, chemistry not given here; listed as Homo sapiens) [Compound 6183NT] | 0.0022

System: 28S rRNA and 18S rRNA (total RNA from HCT116 cells)
Experiment: Human rRNA interaction screening assay (agarose gel electrophoresis mobility shift)
Assay type: binding
Conditions: 1 ug total RNA; 10 uM compound or 0.5 ug/mL PI, 15 min, room temperature
Experimental: RNA was isolated from HCT116 cells (RNeasy kit, QIAGEN) and contacted in vitro with each compound from a library of compounds. In representative assays, 1 ug of total RNA from HCT116 cells was incubated with 0.5 ug/mL of propidium iodide (PI), 10 uM compound A-1 or another compound in the library in a volume of 10 uL for 15 min at room temperature, followed by agarose gel electrophoresis. Fluorescence of the compounds was visualized on each gel. […] Compounds C-1, C-2, C-3, C-4 and C-5 have the following general formula: [drawing 15] [drawing 16]

Row | Molecule | binding to 28S versus 18S rRNA
11 | CN1CCCC1CCNC(=O)c1cn2c3c(c(N4CCC(c5ccccn5)C4)c(F)cc3c1=O)Oc1cc3ccccc3cc1-2 (stereo not shown) [Compound C-1] | selective binding to 28S over 18S
12 | CN1CCCC1CCNC(=O)c1cn2c3c(c(N4CCC(c5ccccn5)C4)c(F)cc3c1=O)Oc1cc3ccccc3cc1-2 (stereo not shown) [Compound C-2] | selective binding to 28S over 18S
13 | CN1CCCC1CCNC(=O)c1cn2c3c(c(N4CCC(c5ccccn5)C4)c(F)cc3c1=O)Oc1cc3ccccc3cc1-2 (stereo not shown) [Compound C-3] | less selectivity for 28S over 18S
14 | CN1CCCC1CCNC(=O)c1cn2c3c(c(N4CCC(c5ccccn5)C4)c(F)cc3c1=O)Oc1cc3ccccc3cc1-2 (stereo not shown) [Compound C-4] | less selectivity for 28S over 18S
15 | CN1CCCC1CCNC(=O)c1cn2c3c(c(N4CCC(c5ccccn5)C4)c(F)cc3c1=O)Oc1cc3ccccc3cc1-2 (stereo not shown) [Compound C-5] | specific binding to 28S over 18S
16 | CC[N+](C)(CC)CCC[n+]1c(-c2ccccc2)c2cc(N)ccc2c2ccc(N)cc21.[I-].[I-] [PI, propidium iodide, reference compound] | did not discriminate in its binding to 18S and 28S rRNA

System: rRNA synthesis, HCT-116
Experiment: PCR assay of rRNA synthesis from 45S rDNA (5' ETS probe)
Assay type: cell-based
Conditions: Homo sapiens; rRNA synthesis, HCT-116; read-out: QPCRrDNA IC50_HCT-116
Experimental: Assays were conducted to determine the effects of compounds on rRNA synthesis from 45S rDNA. In particular, compound A-1 at various concentrations was incubated with cells and tested for an effect on rRNA synthesis after a two hour or four hour incubation with the compound. Synthesized rRNA was quantified by a polymerase chain reaction (PCR) assay. A primer/probe set was designed using Primer Express software and synthesized by Applied Biosystems. The 5′ ETS Probe utilized had the following sequence (@ its 3′ end): 6FAM-TTG ATC CTG CCA GTA GC-MGBNFQ (SEQ ID NO:227). The primer sequences were as follows:
(§1) Mix • 1 ug RNA • 2.5 ul 10× Taq Man buffer • 5.5 ul 25 mM MgCl2 • 5 ul of a mix of dNTP (500 uM each) • 1.2 ul random hexamer primer (2.5 uM stock) • 0.5 ul RNase inhibitor (0.4 units/ul) • 0.6 ul Reverse Transcriptase (1.2 units/ul) • bring to 25 ul total volume with water
(§2) Mix • 5 ul Reverse Transcriptase reaction product • 12.5 ul 2×PCR mix • 1 uM forward primer • 1 uM reverse primer • 0.5 uM Taq Man probe • 500 nM Rox • Adjust to 25 ul final volume with water
(§3) PCR cycles • 95 degrees C. 1 minute • 40 cycles of • 95 degrees C. 15 seconds • 60 degrees C. 1 minute.
(§4) Fluorescence of digested label was detected and quantified. […] The effect of other compounds on rRNA synthesis also were assessed in the assay, and provided in the table hereafter are IC50 values of selected compounds pertaining to rRNA synthesis and cMYC RNA synthesis.

Row | Molecule | IC50 [µM]
17 | O=C(NCCN1CCCC1)c1cn2c3c(c(NCCN4CCCC4)c(F)cc3c1=O)Oc1ccccc1-2 [Compound 1] | 0.05
18 | CC(C)N1CCN(c2c(F)cc3c(=O)c(C(=O)NCCN4CCCC4)cn4c3c2Oc2cc(Cl)ccc2-4)CC1 [Compound 2] | 0.05
19 | CC(C)N1CCN(c2nc3c(cc2F)c(=O)c(C(=O)NCCC2CCCN2C)c2n(C)c4ccc(C#N)cc4n32)CC1 (stereo not shown) [Compound 3] | 0.05
20 | CC(=O)N1CCN(c2c(F)cc3c(=O)c(C(=O)NCCN4CCCC4)cn4c3c2Oc2cc(Cl)ccc2-4)CC1 [Compound 4] | 0.05
21 | O=C(NCCN1CCCC1)c1cn2c3c(c(N4CCOCC4)c(F)cc3c1=O)Oc1cc(Cl)ccc1-2 [Compound 5] | 0.05
22 | CC(=O)N1CCN(c2ccc3c(=O)c(C(=O)NCCN4CCCC4)c4sc5ccccc5n4c3n2)CC1 [Compound 6] | 0.08
23 | O=C(NCCN1CCOCC1)c1c(=O)c2cnc(N3CCNCC3)nc2n2c1sc1ccccc12 [Compound 7] | 0.08
24 | CC(=O)N1CCN(c2ccc3c(=O)n(CCCN4CCCC4)c4nc5ccccc5n4c3n2)CC1 [Compound 8] | 0.05
25 | COc1ccc2c(=O)c(C(=O)NCCN3CCCC3)c3sc4ccccc4n3c2n1 [Compound 9] | 0.05

Biological target: T1, nucleolin
Experiment: EMSA, relative affinity of nucleic acid ligands for nucleolin
Assay type: binding
Set-up: key: +: weakest nucleolin affinity; ++++: strongest nucleolin affinity
Conditions: not given
Experimental: (§5) The following assays assessed effects of compounds on interactions between nucleolin and nucleic acid ligands capable of forming quadruplex (QP) and hairpin (HP) secondary structures. Nucleic acid ligands tested were a cMyc QP DNA having nucleotide sequence 5′-[…]-3′ (SEQ ID NO: 176) and a HP pre-rRNA region to which nucleolin binds, having the sequence 5′-[…]-3′ (SEQ ID NO: 177). In the assays, recombinant nucleolin (˜250 nM), which was fused to maltose binding protein and had the sequence under accession number NM_005381 without the N-terminal acidic stretches domain, was incubated with each of the two ^32P-labeled nucleic acid ligands (10 or 250 nM). Nucleolin and the nucleic acid ligand were incubated in the presence or absence of a test compound of Formula A-1, B-1, C-6 or C-7 in an incubation buffer (12.5 mM Tris, pH 7.6, 60 mM KCl, 1 mM MgCl2, 0.1 mM EDTA, 1 mM DTT, 5% glycerol, 0.1 mg/ml BSA) for 30 minutes at room temperature. Structures for A-1 and B-1 are shown above and structures for C-6 and C-7 are shown hereafter: [drawing 17] The resulting complexes were separated on a 6% DNA retardation gel using 0.5× TBE with 20 mM KCl as a running buffer (i.e., electrophoresis mobility shift assay (EMSA)).
The assay also was conducted using nucleic acid ligands derived from human ribosomal DNA. Sequences of these nucleic acids are shown in the preceding example. […] A “+” represents the weakest nucleolin affinity and least interference by compound A-1 and a “++++” represents the strongest nucleolin affinity and greatest interference by compound A-1.

Row | Molecule | Affinity for Nucleolin (relative)
26 | GGGAGGGCGCGCGGGTCGGGG (listed as DNA, chemistry not given here; listed as Homo sapiens) [Compound 8749NT] | +
27 | GGGAGGGGCACGGGCCGGGGGCGGGACGGG (listed as DNA, chemistry not given here; listed as Homo sapiens) [Compound 7733T] | +
28 | GGGGCGCGGCGGGGGGAGAAGGGTCGGGGCGGCAGGGG (listed as DNA, chemistry not given here; listed as Homo sapiens) [Compound 11028NT] | +
29 | GGGGGCGGGCTCCGGCGGGTGCGGGGGTGGGCGGGCGGGGCCGGGGGTGGGGTCGGCGGGGG [Compound 8511NT] | ++++
30 | GGGTCGGGGGCGGTGGTGGGCCCGCGGGGG (listed as DNA, chemistry not given here; listed as Homo sapiens) [Compound 6183NT] | +

Biological target: T2, nucleolin/HP pre-rRNA region (Homo sapiens, UniProt P19338)
T2 construct: without the N-terminal acidic stretches domain
Experiment: EMSA, nucleolin/HP ligand interaction
Assay type: binding
Conditions: nucleolin ~250 nM, 32P-labeled ligand 10 or 250 nM, 30 minutes (FIG. 1, FIG. 2)
Experimental: as §5

T2 sequence (P19338 284-710 limits assumed): as the sequence (P19338 284-710 limits assumed) above

Row | Molecule | interference with the nucleolin/HP ligand interaction
31 | CC(=O)N1CCN(c2c(F)cc3c(=O)c(C(=O)NCCN4CCCC4)cn4c3c2Oc2cc(Cl)ccc2-4)CC1 [Compound C-6] | did not significantly interfere with the nucleolin/HP ligand interaction
32 | CC(=O)N1CCN(c2c(F)cc3c(=O)c(C(=O)NCCC4CCCN4C)cn4c3c2Oc2cc3ccccc3cc2-4)CC1 (stereo not shown) [Compound C-7] | did not significantly interfere with the nucleolin/HP ligand interaction

Biological target: T3, nucleolin/cMyc QP DNA (Homo sapiens, UniProt P19338)
T3 construct: without the N-terminal acidic stretches domain
Experiment: EMSA, nucleolin/QP ligand interaction
Assay type: binding
Conditions: nucleolin ~250 nM, 32P-labeled ligand 10 or 250 nM, 30 minutes (FIG. 1, FIG. 2)
Experimental: as §5

T3 sequence (P19338 284-710 limits assumed): as the sequence (P19338 284-710 limits assumed) above

Row | Molecule | interference with the nucleolin/QP ligand interaction
33 | CC(=O)N1CCN(c2c(F)cc3c(=O)c(C(=O)NCCN4CCCC4)cn4c3c2Oc2cc(Cl)ccc2-4)CC1 [Compound C-6] | interfered with the nucleolin/QP ligand interaction
34 | CC(=O)N1CCN(c2c(F)cc3c(=O)c(C(=O)NCCC4CCCN4C)cn4c3c2Oc2cc3ccccc3cc2-4)CC1 (stereo not shown) [Compound C-7] | interfered with the nucleolin/QP ligand interaction

System: cMYC RNA synthesis, HCT-116
Experiment: PCR control assay of C-myc transcription
Assay type: cell-based
Conditions: not given
Experimental: A control assay that detected effects of the compounds on C-myc transcription also was conducted using a primer/probe set purchased from ABI (TaqMan Gene Expression Assay with assay ID: Hs99999003_m1). The following assay protocol was utilized:
as §1, §2, §3, §4

Row | Molecule | QPCRMYC IC50_HCT-116
35 | CC(C)N1CCN(c2nc3c(cc2F)c(=O)c(C(=O)NCCC2CCCN2C)c2n(C)c4ccc(C#N)cc4n32)CC1 (stereo not shown) [Compound 3] | INACTIVE

Same assay, conditions: Homo sapiens, read-out: QPCRMYC IC50_HCT-116

Row | Molecule | IC50 [µM]
36 | O=C(NCCN1CCCC1)c1cn2c3c(c(NCCN4CCCC4)c(F)cc3c1=O)Oc1ccccc1-2 [Compound 1] | 0.01
37 | CC(C)N1CCN(c2c(F)cc3c(=O)c(C(=O)NCCN4CCCC4)cn4c3c2Oc2cc(Cl)ccc2-4)CC1 [Compound 2] | 0.1
38 | CC(=O)N1CCN(c2c(F)cc3c(=O)c(C(=O)NCCN4CCCC4)cn4c3c2Oc2cc(Cl)ccc2-4)CC1 [Compound 4] | 0.3
39 | O=C(NCCN1CCCC1)c1cn2c3c(c(N4CCOCC4)c(F)cc3c1=O)Oc1cc(Cl)ccc1-2 [Compound 5] | 0.3
40 | CC(=O)N1CCN(c2ccc3c(=O)c(C(=O)NCCN4CCCC4)c4sc5ccccc5n4c3n2)CC1 [Compound 6] | 0.3
41 | O=C(NCCN1CCOCC1)c1c(=O)c2cnc(N3CCNCC3)nc2n2c1sc1ccccc12 [Compound 7] | 0.3
42 | CC(=O)N1CCN(c2ccc3c(=O)n(CCCN4CCCC4)c4nc5ccccc5n4c3n2)CC1 [Compound 8] | 0.3
43 | COc1ccc2c(=O)c(C(=O)NCCN3CCCC3)c3sc4ccccc4n3c2n1 [Compound 9] | 0.3
